Assay results taken from ChEMBL document CHEMBL1201862, “PubChem BioAssay data set” (2004).
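Dose response: 5 concentrations. Exposure: 48 h. Format: 96-well plates. Endpoint: linear interpolation; highest concentration if not reached. Here, GI50 denotes the concentration required for 50% inhibition of growth.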 Activity calls are given as the source filed them. Rule as the data show it: active = GI50 up to about 1.1 µM and inactive = higher.

Experiments:
Assay in all cases: growth of human tumour cells (NCI), 48 h
SF-268 = test system: SF-268
SNB-75 = test system: SNB-75
OVCAR-5 = test system: OVCAR-5
SK-MEL-28 = test system: SK-MEL-28
HCT-116 = test system: HCT-116
KM12 = test system: KM12
CCRF-CEM = test system: CCRF-CEM
OVCAR-4 = test system: OVCAR-4
LXFL 529 = test system: LXFL 529
SR = test system: SR
NCI-H23 = test system: NCI-H23
TK-10 = test system: TK-10
DLD-1 = test system: DLD-1
M14 = test system: M14
NCI-H460 = test system: NCI-H460
UACC-62 = test system: UACC-62
UACC-257 = test system: UACC-257
SF-295 = test system: SF-295
SNB-19 = test system: SNB-19
RXF 393 = test system: RXF 393
786-0 = test system: 786-0
A549 = test system: A549
SN12C = test system: SN12C
LOX IMVI = test system: LOX IMVI
HCT-15 = test system: HCT-15
ACHN = test system: ACHN
K562 = test system: K562
UO-31 = test system: UO-31
NCI-H226 = test system: NCI-H226
OVCAR-3 = test system: OVCAR-3
HOP-92 = test system: HOP-92
RPMI-8226 = test system: RPMI-8226
HOP-18 = test system: HOP-18
Malme-3M = test system: Malme-3M
MOLT-4 = test system: MOLT-4
IGROV-1 = test system: IGROV-1
COLO 205 = test system: COLO 205
SK-MEL-2 = test system: SK-MEL-2
DMS-114 = test system: DMS-114
HT-29 = test system: HT-29
SNB-78 = test system: SNB-78
EKVX = test system: EKVX
SK-OV-3 = test system: SK-OV-3
DMS-273 = test system: DMS-273
M19-MEL = test system: M19-MEL
HCC 2998 = test system: HCC 2998
HL-60 = test system: HL-60
KM-20L2 = test system: KM-20L2
U-251 = test system: U-251
SF-539 = test system: SF-539
SW-620 = test system: SW-620
OVCAR-8 = test system: OVCAR-8
NCI-H522 = test system: NCI-H522
SK-MEL-5 = test system: SK-MEL-5

In the case of `COc1cc(-c2cccs2)sc1-c1cccs1`, the GI50 (SF-268) is reported as 53.6 µM (inactive), the GI50 (SNB-75) is reported as 14 µM (inactive) and the GI50 (OVCAR-5) is reported as 22.3 µM (inactive). The GI50 (SK-MEL-28) was 34 µM (inactive), the GI50 (HCT-116) was 28.6 µM (inactive) and the GI50 (KM12) was 27.7 µM (inactive). For the same molecule, the GI50 (CCRF-CEM) was 29.3 µM (inactive), the GI50 (OVCAR-4) was 50.2 µM (inactive) and the GI50 (LXFL 529) was 45 µM (inactive). For the same molecule, the GI50 (SR) was 17.7 µM (inactive), the GI50 (NCI-H23) was 15.7 µM (inactive) and the GI50 (TK-10) was 41.6 µM (inactive). The GI50 (DLD-1) was 8.17 µM (inactive), the GI50 (M14) was 35.3 µM (inactive) and the GI50 (NCI-H460) was 26 µM (inactive). For the same molecule, the GI50 (UACC-62) was 40.9 µM (inactive), the GI50 (UACC-257) was 39.7 µM (inactive) and the GI50 (SF-295) was 23.3 µM (inactive). The GI50 (SNB-19) was > 100 µM (inactive), the GI50 (RXF 393) was 21.8 µM (inactive) and the GI50 (786-0) was 39.3 µM (inactive). The GI50 (A549) was 33.3 µM (inactive), the GI50 (SN12C) was 81.8 µM (inactive) and the GI50 (LOX IMVI) was 46.2 µM (inactive). The GI50 (HCT-15) was 4.4 µM, the GI50 (ACHN) was 53.5 µM (inactive) and the GI50 (K562) was 13.6 µM (inactive). For the same molecule, the GI50 (UO-31) was 38.2 µM (inactive), the GI50 (NCI-H226) was 43.5 µM (inactive) and the GI50 (OVCAR-3) was 63.8 µM (inactive). The GI50 (HOP-92) was 24.5 µM (inactive), the GI50 (RPMI-8226) was 52.4 µM (inactive) and the GI50 (HOP-18) was 1.58 µM (inactive). The GI50 (Malme-3M) was 39 µM (inactive), the GI50 (MOLT-4) was 32.6 µM (inactive) and the GI50 (IGROV-1) was 25.5 µM (inactive). The GI50 (COLO 205) was 13.2 µM (inactive), the GI50 (SK-MEL-2) was 31.5 µM (inactive) and the GI50 (DMS-114) was 30 µM (inactive). For the same molecule, the GI50 (HT-29) was 20.7 µM (inactive), the GI50 (SNB-78) was 36.2 µM (inactive) and the GI50 (EKVX) was 6.55 µM (inactive). The GI50 (SK-OV-3) was 31 µM (inactive), the GI50 (DMS-273) was 12.5 µM (inactive) and the GI50 (M19-MEL) was 32.8 µM (inactive). The GI50 (HCC 2998) was 26.7 µM (inactive), the GI50 (HL-60) was 14.3 µM (inactive) and the GI50 (KM-20L2) was 26.7 µM (inactive). For the same molecule, the GI50 (U-251) was 43.6 µM (inactive), the GI50 (SF-539) was 73.8 µM (inactive) and the GI50 (SW-620) was 71.1 µM (inactive). The GI50 (OVCAR-8) was 97.1 µM (inactive), the GI50 (NCI-H522) was 31 µM (inactive) and the GI50 (SK-MEL-5) was 29.7 µM (inactive).
